Measured values from patent US20250034139A1, “AMINE COMPOUNDS HAVING ANTI-INFLAMMATORY, ANTIFUNGAL, ANTIPARASITIC, AND ANTICANCER ACTIVITY” (PHARMA CINQ, LLC, priority 2013, published 2025).

Experiments:
[1] = system: PC-3 prostate cancer cells; experiment: Example T: sensitisation of PC-3 cells to doxorubicin, oxaliplatin, paclitaxel or vincristine, Wst1; assay type: cell-based, human; conditions: PC-3 cells, 72 hours; for viability at 0.4 µM: compound 0.4 μM alone; for Doxorubicin 3.5 μM: percent cell survival / Oxaliplatin 100 μM: percent cell survival / Paclitaxel 50 μM: percent cell survival / Vincristine 100 nM: percent cell survival: chemotherapy agent alone normalized to 100%; for viability at 2.5 µM: compound 2.5 μM alone
[2] = system: THP-1 cells; experiment: Example D: LPS-triggered THP-1 cell death assay, acute/5-hour and chronic/48-hour; assay type: cell-based, Human; conditions: 10 ng/ml LPS, 0.1 μM test compound, 48 hours
Experimental: Compounds of the invention were tested at 0.1 μM versus AC in the LPS-triggered THP-1 cell death assay. Both acute/5-hour and chronic/48-hour phases of cell death were assessed. Compounds were screened in batches with DMSO as the negative control and AC as the high activity control.

[3] = system: 4T1 murine breast cancer cells; experiment: Example S: in vitro anticancer screen, 4T1 cells, Wst1; assay type: cell-based, mouse; conditions: Mus musculus, 4T1, 18 h, 18 hr, Wst1; for viability at 1 µM: read-out: 4T1 1 μM, percent of cancer cell survival relative to vehicle treated cells; for viability at 5 µM: read-out: 4T1 5 μM, percent of cancer cell survival relative to vehicle treated cells
Procedure, shortened: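 4T1 cells seeded at 1×10^4/well were exposed to compound at 1 μM or 5 μM for 18 hr after plating. Wst1 tetrazolium dye was then added for about 2 hr and absorbance read at 450 nm (reference 630 nm). Values are percent survival relative to vehicle-treated cells.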

[4] = system: PC3 human prostate cancer cells; experiment: Example S: in vitro anticancer screen, PC-3 cells, Wst1; assay type: cell-based; conditions: Homo sapiens, PC-3, approximately 20 hours, Wst1, read-out: PC-3, percent of cancer cell survival relative to vehicle treated cells
Experimental: Activity against PC3 human prostate cancer cells in vitro was assessed by a similar method. PC-3 prostate cancer cells were plated at 2×10^4 cells/well in 96 well flat bottom tissue culture plates, and incubated for approximately 20 hours with vehicle or test compounds at concentrations of 0.4, 0.5 or 2.5 μM as indicated for specific compounds in the right-hand column of Table 37. A 1/10th volume of Wst1 dye was added/well and incubated for two hours in the cell culture incubator. Samples were analyzed in triplicate on an EL800 Universal Microplate Reader at 450 nm, reference wavelength 630 nm.
Numerical values in the Table 37 represent percent of cancer cell survival relative to vehicle treated cells at the indicated concentrations, with values under 100 indicating anticancer cytotoxic activity at the drugs concentrations tested.

[5] = Homo sapiens, Wst1, vehicle = 100, read-out: No Chemo: percent cell survival
[6] = compound 0.4 μM + doxorubicin 3.5 μM
[7] = compound 0.4 μM + oxaliplatin 100 μM
[8] = compound 0.4 μM + paclitaxel 50 μM
[9] = compound 0.4 μM + vincristine 100 nM
[10] = compound 2.5 μM + doxorubicin 3.5 μM
[11] = compound 2.5 μM + oxaliplatin 100 μM
[12] = compound 2.5 μM + paclitaxel 50 μM
[13] = compound 2.5 μM + vincristine 100 nM

Structure (SMILES)	viability at 0.4 µM [1, 5] [%]	Doxorubicin 3.5 μM: percent cell survival [1, 6] [%]	Oxaliplatin 100 μM: percent cell survival [1, 7] [%]	Paclitaxel 50 μM: percent cell survival [1, 8] [%]	Vincristine 100 nM: percent cell survival [1, 9] [%]	Viable cell percent change, Chronic/48-hour, Mean [2] [%]	viability at 1 µM [3] [%]	viability at 5 µM [3] [%]	viability at 0.4 µM [4] [%]	viability at 2.5 µM [1, 5] [%]	Doxorubicin 3.5 μM: percent cell survival [1, 10] [%]	Oxaliplatin 100 μM: percent cell survival [1, 11] [%]	Paclitaxel 50 μM: percent cell survival [1, 12] [%]	Vincristine 100 nM: percent cell survival [1, 13] [%]	viability at 2.5 µM [4] [%]	also measured
CC(C)(C)c1ccc(OCCCCCCCCNc2ccnc3ccccc23)cc1 [DA, N-[8-(4-tert-Butylphenoxy)octyl]quinolin-4-amine]	95.7	82.8	91.3	100.8	19.1	43.55	17.6	18.4	95.7	–	–	–	–	–	–	–
Fc1ccccc1OCCCCCCCCNc1ccnc2ccccc12 [DB, N-[8-(2-Fluorophenoxy)octyl]quinolin-4-amine]	24.7	56	62.3	40.3	29.6	20.47	20.1	22.2	24.7	–	–	–	–	–	–	–
c1ccc(Oc2ccccc2Nc2ccnc3ccccc23)cc1 [DF, N-(2-Phenoxyphenyl)quinolin-4-amine]	102	88.7	96.5	89.4	95.4	39.26	27.1	20.8	102	–	–	–	–	–	–	–
c1ccc(COc2ccc(Nc3ccnc4ccccc34)cc2)cc1 [DJ, N-[4-(Benzyloxy)phenyl]quinolin-4-amine]	–	–	–	–	–	22.32	89	66.9	–	85.9	116.2	137.1	137.1	115.3	85.9	–
CCCCCCOc1ccc(Nc2ccnc3ccccc23)cc1 [DL, N-[4-(Hexyloxy)phenyl]quinolin-4-amine]	–	–	–	–	–	61.01	70.9	21	–	43	193.5	172.6	164.8	164.9	43	–
c1ccc(COc2cccc(Nc3ccnc4ccccc34)c2)cc1 [DM, N-[3-(Benzyloxy)phenyl]quinolin-4-amine]	–	–	–	–	–	34.67	128	47.8	–	45.6	79.2	91.1	105.4	92.1	45.6	–
CCCCCCOc1cccc(Nc2ccnc3ccccc23)c1 [DN, N-[3-(Hexyloxy)phenyl]quinolin-4-amine]	–	–	–	–	–	77.15	104	56.7	–	31.7	64.1	78	64.7	72.3	31.7	–
c1ccc(COc2ccccc2Nc2ccnc3ccccc23)cc1 [DO, N-[2-(Benzyloxy)phenyl]quinolin-4-amine]	–	–	–	–	–	36.46	116	35.2	–	59.2	79.9	89.9	93.4	90.1	59.2	–
CCCCCCOc1ccccc1Nc1ccnc2ccccc12 [DP, N-[2-(Hexyloxy)phenyl]quinolin-4-amine]	–	–	–	–	–	42.36	72.5	25.4	–	37.5	65.3	77.4	64.6	74.1	37.5	–
c1ccc(CCNc2ccnc3ccccc23)cc1 [DR, N-Phenethylquinolin-4-amine]	–	–	–	–	–	27.12	77.9	27.2	–	31.5	59.9	68.7	49.2	35.5	31.5	–
CCCCCCOc1ccccc1CNc1ccnc2ccccc12 [DS, N-[2-(Hexyloxy)benzyl]quinolin-4-amine]	70	86.4	97	97.1	98.6	56.67	35.6	25.5	70	–	–	–	–	–	–	–
O=C(NCCCCCCCCNc1ccnc2ccccc12)c1ccccc1 [DY, N-[8-(Quinolin-4-ylamino)octyl]benzamide]	–	–	–	–	–	45.25	88.9	60.5	–	–	–	–	–	–	–	viability at 5 µM ([1]; Homo sapiens, compound 5 μM alone, Wst1, vehicle = 100, read-out: No Chemo: percent cell survival): 16.1%; Doxorubicin 3.5 μM: percent cell survival ([1]; compound 5 μM + doxorubicin 3.5 μM): 21.2%; Oxaliplatin 100 μM: percent cell survival ([1]; compound 5 μM + oxaliplatin 100 μM): 20.6%; Paclitaxel 50 μM: percent cell survival ([1]; compound 5 μM + paclitaxel 50 μM): 23.3%; Vincristine 100 nM: percent cell survival ([1]; compound 5 μM + vincristine 100 nM): 18.3%; viability at 5 µM ([4]; 5 μM): 16.1%
COc1cccc(C(=O)NCCCCCCCCNc2ccnc3ccccc23)c1 [DZ, 3-Methoxy-N-[8-(quinolin-4-ylamino)octyl]benzamide]	84.8	85.6	86.7	71.8	89	73.5	23.7	17.4	84.8	–	–	–	–	–	–	–
COc1ccc(C(=O)NCCCCCCCCNc2ccnc3ccccc23)cc1 [EA, 4-Methoxy-N-[8-(quinolin-4-ylamino)octyl]benzamide]	108	87.8	89	73.5	84.5	73.48	31.1	36.8	108	–	–	–	–	–	–	–
O=C(NCCCCCCCCNc1ccnc2ccccc12)c1ccccn1 [EE, N-[8-(Quinolin-4-ylamino)octyl]picolinamide]	34	66.4	70.8	45.3	47.1	24.32	24	18.1	34	–	–	–	–	–	–	–
